Entries after “also recorded” stand apart in the source; their conditions may differ. Structures can show the parent of a compound that is named as a salt.
Columns and labels:
[1] = biological target: T1, Kit (Homo sapiens, UniProt P10721); experiment: recombinant kinase transphosphorylation (33P-ATP) profiling, Kit; format: biochemical; conditions: 10 concentrations, n=1
T1 construct: host or cells: baculovirus system

[2] = biological target: T2, Abl-1 (Homo sapiens, UniProt P00519); experiment: recombinant kinase transphosphorylation (33P-ATP) profiling, Abl-1; format: biochemical; conditions: 10 concentrations, n=1
T2 construct: host or cells: baculovirus system
Protocol: (§1) The ability of a set of protein kinases—tyrosine and serine/threonine kinases expressed in a baculovirus system—to incorporate ^33P (from ^33P-ATP) in relevant substrates, in the presence of decreasing concentrations of the inhibitor (10 concentrations from 10^−5 to 3.10^−10, n=1) was determined.

[3] = biological target: T3, Src (Homo sapiens, UniProt P12931); experiment: recombinant kinase transphosphorylation (33P-ATP) profiling, Src; format: biochemical; conditions: 10 concentrations, n=1
T3 construct: host or cells: baculovirus system

[4] = biological target: T4, Flt-3 (Homo sapiens, UniProt P36888); experiment: recombinant kinase transphosphorylation (33P-ATP) profiling, Flt-3; format: biochemical; conditions: 10 concentrations, n=1
T4 construct: host or cells: baculovirus system
T4 sequence (P36888 27-993): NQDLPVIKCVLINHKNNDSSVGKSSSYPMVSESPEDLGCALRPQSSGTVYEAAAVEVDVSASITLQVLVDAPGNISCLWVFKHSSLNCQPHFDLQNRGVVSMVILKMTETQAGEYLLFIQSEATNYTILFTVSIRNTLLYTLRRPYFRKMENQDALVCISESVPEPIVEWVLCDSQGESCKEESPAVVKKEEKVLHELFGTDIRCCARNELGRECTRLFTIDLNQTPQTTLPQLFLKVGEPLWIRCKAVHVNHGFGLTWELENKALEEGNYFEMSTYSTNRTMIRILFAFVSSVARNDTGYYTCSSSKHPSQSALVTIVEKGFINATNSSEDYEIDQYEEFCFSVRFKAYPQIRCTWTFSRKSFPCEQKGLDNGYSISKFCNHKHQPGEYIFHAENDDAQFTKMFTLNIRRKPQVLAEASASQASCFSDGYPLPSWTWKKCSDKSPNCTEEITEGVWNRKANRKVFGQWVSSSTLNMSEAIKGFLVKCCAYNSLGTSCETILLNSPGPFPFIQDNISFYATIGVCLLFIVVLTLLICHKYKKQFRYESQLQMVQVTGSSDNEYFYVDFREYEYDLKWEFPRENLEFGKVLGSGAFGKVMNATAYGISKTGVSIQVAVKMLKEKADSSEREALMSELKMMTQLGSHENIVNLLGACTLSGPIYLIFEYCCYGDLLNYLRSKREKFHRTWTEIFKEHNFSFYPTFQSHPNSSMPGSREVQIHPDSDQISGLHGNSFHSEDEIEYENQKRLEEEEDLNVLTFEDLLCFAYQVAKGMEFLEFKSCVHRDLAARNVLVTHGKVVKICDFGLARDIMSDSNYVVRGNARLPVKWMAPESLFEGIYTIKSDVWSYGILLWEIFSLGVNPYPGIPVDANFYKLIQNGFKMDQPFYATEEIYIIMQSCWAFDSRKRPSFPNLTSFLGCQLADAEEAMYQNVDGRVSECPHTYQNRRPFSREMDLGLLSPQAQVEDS

[5] = biological target: T5, FGR (Homo sapiens, UniProt P09769); experiment: recombinant kinase transphosphorylation (33P-ATP) profiling, FGR; format: biochemical; conditions: 10 concentrations, n=1
T5 construct: host or cells: baculovirus system
Protocol: as §1

[6] = biological target: Irak; experiment: recombinant kinase transphosphorylation (33P-ATP) profiling, Irak; format: biochemical; conditions: 10 concentrations, n=1
[7] = biological target: T6, Eph-B4 (Homo sapiens, UniProt P54760); experiment: recombinant kinase transphosphorylation (33P-ATP) profiling, Eph-B4; format: biochemical; conditions: 10 concentrations, n=1
T6 construct: host or cells: baculovirus system
Protocol: as §1

[8] = biological target: T7, Met (Homo sapiens, UniProt P08581); experiment: recombinant kinase transphosphorylation (33P-ATP) profiling, Met; format: biochemical; conditions: 10 concentrations, n=1
T7 construct: host or cells: baculovirus system
Protocol: as §1

[9] = biological target: T8, VEGF-R1 (Homo sapiens, UniProt P17948); experiment: recombinant kinase transphosphorylation (33P-ATP) profiling, VEGF-R1; format: biochemical; conditions: 10 concentrations, n=1
T8 construct: host or cells: baculovirus system
T8 sequence (P17948 27-1338): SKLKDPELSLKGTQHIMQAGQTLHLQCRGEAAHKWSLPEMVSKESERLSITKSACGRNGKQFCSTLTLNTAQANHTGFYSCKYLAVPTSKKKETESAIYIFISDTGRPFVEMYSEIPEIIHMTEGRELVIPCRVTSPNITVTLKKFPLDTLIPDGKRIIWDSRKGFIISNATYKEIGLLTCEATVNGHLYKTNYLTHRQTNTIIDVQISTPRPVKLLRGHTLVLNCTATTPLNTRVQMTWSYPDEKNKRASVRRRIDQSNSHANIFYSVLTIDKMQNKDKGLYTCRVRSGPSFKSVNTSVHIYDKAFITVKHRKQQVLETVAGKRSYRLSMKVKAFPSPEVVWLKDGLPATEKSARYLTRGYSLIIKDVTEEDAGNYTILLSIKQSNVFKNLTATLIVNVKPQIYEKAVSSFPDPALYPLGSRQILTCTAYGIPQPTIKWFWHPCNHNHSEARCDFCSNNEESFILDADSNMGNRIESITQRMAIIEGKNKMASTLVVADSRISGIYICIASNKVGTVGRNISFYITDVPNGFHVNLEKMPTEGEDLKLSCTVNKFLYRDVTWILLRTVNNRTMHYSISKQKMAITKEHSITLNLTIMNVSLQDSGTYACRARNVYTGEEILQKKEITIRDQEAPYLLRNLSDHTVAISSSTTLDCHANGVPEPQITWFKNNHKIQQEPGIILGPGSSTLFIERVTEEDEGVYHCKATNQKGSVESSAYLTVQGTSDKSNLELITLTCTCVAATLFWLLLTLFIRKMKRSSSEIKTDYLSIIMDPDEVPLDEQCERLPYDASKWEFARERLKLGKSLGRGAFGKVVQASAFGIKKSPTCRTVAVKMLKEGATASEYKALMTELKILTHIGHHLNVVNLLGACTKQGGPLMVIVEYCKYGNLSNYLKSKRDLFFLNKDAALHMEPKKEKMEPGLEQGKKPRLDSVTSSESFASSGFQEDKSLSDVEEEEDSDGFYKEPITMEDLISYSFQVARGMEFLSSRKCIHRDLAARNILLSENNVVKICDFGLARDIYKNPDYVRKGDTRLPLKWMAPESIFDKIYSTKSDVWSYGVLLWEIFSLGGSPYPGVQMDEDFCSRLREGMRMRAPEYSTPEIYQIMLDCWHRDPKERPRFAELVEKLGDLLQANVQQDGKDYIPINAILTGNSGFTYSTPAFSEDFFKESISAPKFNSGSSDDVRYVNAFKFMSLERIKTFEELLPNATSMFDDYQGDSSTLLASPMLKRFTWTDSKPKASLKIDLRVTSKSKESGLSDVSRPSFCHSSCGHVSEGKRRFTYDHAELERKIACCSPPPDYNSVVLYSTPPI
Protocol: as §1

[10] = biological target: T9, VEGF-R2 (Homo sapiens, UniProt P35968); experiment: recombinant kinase transphosphorylation (33P-ATP) profiling, VEGF-R2; format: biochemical; conditions: 10 concentrations, n=1
T9 construct: host or cells: baculovirus system
Protocol: as §1

[11] = biological target: T10, FGF-R1 (Homo sapiens, UniProt P11362); experiment: recombinant kinase transphosphorylation (33P-ATP) profiling, FGF-R1; format: biochemical; conditions: 10 concentrations, n=1
T10 construct: host or cells: baculovirus system
Protocol: as §1

[12] = biological target: T11, FGF-R4 (Homo sapiens, UniProt P22455); experiment: recombinant kinase transphosphorylation (33P-ATP) profiling, FGF-R4; format: biochemical; conditions: 10 concentrations, n=1
T11 construct: host or cells: baculovirus system
T11 sequence (P22455 22-802): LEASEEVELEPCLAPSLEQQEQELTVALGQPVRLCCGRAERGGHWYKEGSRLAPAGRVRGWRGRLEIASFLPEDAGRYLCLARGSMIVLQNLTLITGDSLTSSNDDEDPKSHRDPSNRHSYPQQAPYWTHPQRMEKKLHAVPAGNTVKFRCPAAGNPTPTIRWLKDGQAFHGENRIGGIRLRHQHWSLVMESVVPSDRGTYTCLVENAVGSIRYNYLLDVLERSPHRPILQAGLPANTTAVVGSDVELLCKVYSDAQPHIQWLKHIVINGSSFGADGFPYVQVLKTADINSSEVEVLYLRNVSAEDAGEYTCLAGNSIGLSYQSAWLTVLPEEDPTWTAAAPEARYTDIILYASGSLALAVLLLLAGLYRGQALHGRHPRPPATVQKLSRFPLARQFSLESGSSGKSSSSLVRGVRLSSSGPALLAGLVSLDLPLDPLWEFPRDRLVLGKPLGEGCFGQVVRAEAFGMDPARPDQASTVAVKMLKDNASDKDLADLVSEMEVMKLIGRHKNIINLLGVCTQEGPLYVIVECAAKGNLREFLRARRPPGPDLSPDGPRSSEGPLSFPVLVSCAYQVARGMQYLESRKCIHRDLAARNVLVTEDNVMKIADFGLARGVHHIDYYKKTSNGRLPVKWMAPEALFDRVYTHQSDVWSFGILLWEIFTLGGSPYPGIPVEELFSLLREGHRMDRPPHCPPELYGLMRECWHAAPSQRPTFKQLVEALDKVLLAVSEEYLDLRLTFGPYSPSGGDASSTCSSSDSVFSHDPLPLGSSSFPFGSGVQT
Protocol: as §1

[13] = biological target: T12, IGF1-R (Homo sapiens, UniProt P08069); experiment: recombinant kinase transphosphorylation (33P-ATP) profiling, IGF1-R; format: biochemical; conditions: 10 concentrations, n=1
T12 construct: host or cells: baculovirus system
T12 sequence (P08069 31-1367): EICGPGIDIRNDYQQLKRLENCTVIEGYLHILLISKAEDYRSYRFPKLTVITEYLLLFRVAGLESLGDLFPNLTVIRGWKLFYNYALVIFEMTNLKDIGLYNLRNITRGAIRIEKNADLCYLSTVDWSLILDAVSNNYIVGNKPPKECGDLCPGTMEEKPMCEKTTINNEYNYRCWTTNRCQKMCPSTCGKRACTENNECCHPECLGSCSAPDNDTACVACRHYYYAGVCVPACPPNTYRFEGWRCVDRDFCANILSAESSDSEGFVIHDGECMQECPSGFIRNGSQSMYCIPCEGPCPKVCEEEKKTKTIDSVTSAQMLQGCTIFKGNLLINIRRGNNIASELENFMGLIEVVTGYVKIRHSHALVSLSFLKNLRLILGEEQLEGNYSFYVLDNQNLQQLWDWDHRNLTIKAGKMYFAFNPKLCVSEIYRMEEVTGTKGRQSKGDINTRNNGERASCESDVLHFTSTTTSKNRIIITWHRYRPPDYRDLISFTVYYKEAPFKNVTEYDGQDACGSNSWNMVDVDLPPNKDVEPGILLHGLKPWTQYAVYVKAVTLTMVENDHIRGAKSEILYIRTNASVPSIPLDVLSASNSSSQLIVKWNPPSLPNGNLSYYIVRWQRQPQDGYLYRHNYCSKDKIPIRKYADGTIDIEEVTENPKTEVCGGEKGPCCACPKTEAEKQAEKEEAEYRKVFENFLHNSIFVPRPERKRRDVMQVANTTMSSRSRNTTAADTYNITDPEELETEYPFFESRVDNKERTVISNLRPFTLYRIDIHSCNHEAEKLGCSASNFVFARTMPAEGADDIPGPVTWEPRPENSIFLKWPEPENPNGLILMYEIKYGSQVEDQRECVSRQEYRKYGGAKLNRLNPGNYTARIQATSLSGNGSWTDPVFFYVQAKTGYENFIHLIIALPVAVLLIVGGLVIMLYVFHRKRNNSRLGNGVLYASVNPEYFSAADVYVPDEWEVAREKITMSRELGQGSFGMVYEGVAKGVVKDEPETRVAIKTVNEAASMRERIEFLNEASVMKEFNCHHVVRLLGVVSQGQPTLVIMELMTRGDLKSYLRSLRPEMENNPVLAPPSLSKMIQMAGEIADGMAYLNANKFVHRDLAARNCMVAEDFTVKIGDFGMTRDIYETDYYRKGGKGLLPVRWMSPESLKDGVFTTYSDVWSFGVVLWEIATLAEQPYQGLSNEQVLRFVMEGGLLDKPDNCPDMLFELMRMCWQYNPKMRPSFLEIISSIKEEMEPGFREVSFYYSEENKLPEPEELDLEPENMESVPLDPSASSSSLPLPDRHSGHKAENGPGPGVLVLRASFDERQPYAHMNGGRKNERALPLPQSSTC
Protocol: as §1

[14] = system: MV4-11 cells (FLT3-ITD); experiment: MV4-11 cell growth, luminescence assay at 72 hours; format: cell-based, human
Source text: Staurosporine, a non specific kinase inhibitor, was used as positive control.

[15] = system: MOLM-13 cells (FLT3-ITD); experiment: MOLM-13 cell growth, luminescence assay at 72 hours; format: cell-based
Source text: Staurosporine, a non specific kinase inhibitor, is used as positive control.

[16] = system: RS4-11 cells (FLT3-wild type); experiment: RS4-11 cell growth, luminescence assay at 72 hours; format: cell-based, human; conditions: with or without 100 ng/mL FLT3 ligand, FIGS. 5 and 6
[17] = system: MAPK, P13K and STAT5 pathways; experiment: FLT3 downstream signaling phosphorylation in AML FLT3-ITD cell lines; format: cell-based; conditions: immunoprecipitations/western blot
[18] = system: MV4-11 and MOLM-13 cells; experiment: apoptosis by annexin V-FITC / propidium iodide flow cytometry; format: cell-based; conditions: 48 to 72 hours incubation
Protocol: Apoptosis was evaluated by means of flow cytometry to measure cellular binding of an annexin V-FITC conjugate as well as uptake of the vital stain propidium iodide.

[19] = system: protein kinases belonging to families different from the tyrosine kinase family; experiment: kinase profiling, protein kinases outside the tyrosine kinase family; format: biochemical
[20] = system: Mouse endothelial cells from pancreas; experiment: sensitivity of pancreas endothelial cells to Taxotere cytotoxicity; format: cell-based; conditions: with Taxotere
Protocol: Mouse endothelial cells from pancreas are maintained in culture at a temperature 33° C. where they are actively dividing.

[21] = system: L3.6 pL pancreatic tumor; experiment: orthotopic human pancreatic cancer L3.6 pL in nude mice; format: in vivo
Protocol: A pancreatic tumor which is shown to upregulate expression of PDGF AA, BB, A/B at metastatic sites is used for the in vivo studies. Other tumor systems that are known to upregulate expression of PDGF may also be used such as ovarian cancer, prostate cancer, bone metastasis, or breast cancer bone metastasis.
Tumor cells L3.6 pL derived from pancreatic cancer are injected into the pancreas of nude mice. The tumors are grown into detectable lesions.
Two days later, the mice are killed and the organs with and without tumors harvested, fixed, and immunostained to evaluate expression of PDGF AA, BB, A/B, PDGF-R (α,β) and status of phosphorylation of PDGF-R (α,β) on tumor cells and organ-specific endothelial cells.
The surviving mice are then killed and the size of tumor and metastasis is measured. Fixation of the tissues and staining of the tumor cells are performed. Endothelial cells are examined for division (PCNA), apoptosis (TUNEL), CD31 (endothelial cells). Expression of PDGF AA, BB, A/B, and phosphorylation of PDGF-Rα/β are further studied in these endothelial cells.

[22] = system: MV4;11 or RS4;11 cells; experiment: subcutaneous MV4;11 or RS4;11 tumors in athymic nu/nu mice; format: in vivo; conditions: oral, daily or 3 times per week, 50-200 mg/kg, pre-existing tumors
Protocol: Animals are randomized into treatment groups of 15 mice each for efficacy studies. […] Tumor growth is measured twice weekly using Vernier calipers for the duration of the treatment. Tumor volumes are calculated as the product of length x width x height. On completion of the experiments, mice are sacrificed and tumors are harvested for determination of FLT3 and phosphorylated FLT3 in tumor lysates by immunoprecipitation and Western-blot.

[23] = system: MV4;11 cells; experiment: intravenous MV4;11 leukemia model in NOD-SCID mice; format: in vivo
Protocol: In a subset of animals, bone marrow cell suspensions are prepared by flushing mouse femurs with cold sterile PBS, at experimental timepoints (within 90 days of implantation).

[24] = system: AML193 cells (wild type FLT3); experiment: AML193 cell growth, luminescence assay at 72 hours; conditions: with or without 100 ng/mL FLT3 ligand, GN963 at concentrations used (30 μM), FIGS. 3 and 4
[25] = system: FLT3-ITD; experiment: cellular FLT3 phosphorylation, immunoprecipitation/western blot; conditions: immunoprecipitations/western blot
[26] = biological target: T13, PDGFRa (Homo sapiens, UniProt P16234); experiment: recombinant kinase transphosphorylation (33P-ATP) profiling, PDGFRa; format: biochemical; conditions: 10 concentrations, n=1
T13 construct: host or cells: baculovirus system

[27] = biological target: T14, PDGFRb (Homo sapiens, UniProt P09619); experiment: recombinant kinase transphosphorylation (33P-ATP) profiling, PDGFRb; format: biochemical; conditions: 10 concentrations, n=1
T14 construct: host or cells: baculovirus system

[28] = biological target: T15, Brk (Homo sapiens, UniProt Q13882); experiment: recombinant kinase transphosphorylation (33P-ATP) profiling, Brk; format: biochemical; conditions: 10 concentrations, n=1
T15 construct: host or cells: baculovirus system
T15 sequence (Q13882 whole entry): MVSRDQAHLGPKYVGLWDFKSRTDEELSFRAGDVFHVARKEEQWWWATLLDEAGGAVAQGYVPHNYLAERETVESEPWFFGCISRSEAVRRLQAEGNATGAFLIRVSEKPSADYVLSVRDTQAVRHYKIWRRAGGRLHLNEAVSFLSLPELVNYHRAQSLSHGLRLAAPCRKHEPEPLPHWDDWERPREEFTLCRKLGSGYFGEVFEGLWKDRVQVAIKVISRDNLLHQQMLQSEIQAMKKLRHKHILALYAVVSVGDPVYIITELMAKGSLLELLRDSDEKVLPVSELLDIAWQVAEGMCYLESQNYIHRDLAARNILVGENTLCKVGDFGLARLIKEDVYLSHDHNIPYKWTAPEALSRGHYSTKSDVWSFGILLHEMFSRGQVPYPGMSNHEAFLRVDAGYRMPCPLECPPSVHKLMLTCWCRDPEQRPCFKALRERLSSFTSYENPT
Protocol: as §1

[29] = biological target: T16, Lck (Homo sapiens, UniProt P06239); experiment: recombinant kinase transphosphorylation (33P-ATP) profiling, Lck; format: biochemical; conditions: 10 concentrations, n=1
T16 construct: host or cells: baculovirus system

[30] = biological target: T17, EGF-R (Homo sapiens, UniProt P00533); experiment: recombinant kinase transphosphorylation (33P-ATP) profiling, EGF-R; format: biochemical; conditions: 10 concentrations, n=1
T17 construct: host or cells: baculovirus system

[31] = biological target: T18, Ins-R (Homo sapiens, UniProt P06213); experiment: recombinant kinase transphosphorylation (33P-ATP) profiling, Ins-R; format: biochemical; conditions: 10 concentrations, n=1
T18 construct: host or cells: baculovirus system

Compound `COc1cc2ncc(N[C@H]3CC[C@H](O)CC3)nc2cc1OC` [GN963, trans-4-(6,7-dimethoxy-quinoxalin-2-ylamino)-cyclohexanol sulfate] has an IC50 [1] of 7200 nM, an IC50 [2] of 13000 nM and an IC50 [3] of 3600 nM. The IC50 [4] was 1400 nM, the IC50 [5] was 17000 nM and the IC50 [6] was 4100 nM. For the same compound, the IC50 [7] was 7200 nM, the IC50 [8] was over 10000 nM and the IC50 [9] was over 10000 nM. It also gave an IC50 [10] of over 10000 nM, an IC50 [11] of over 10000 nM and an IC50 [12] of over 10000 nM. The IC50 [13] was over 10000 nM, the “effect on MV4-11 cell growth” value ([14]; 72 hours, luminescence assay, FIG. 1) was “inhibits MV4-11 cell growth in a dose dependent manner” and the IC50 ([14]; Homo sapiens, MV4-11, 72 h with inhibitor, Cell Titer-Glo, range stated for MV4-11 and MOLM-13 together, read-out: IC50, inhibition of cellular proliferation) was 0.7 to 2 µM. The “effect on MOLM-13 cell growth” value ([15]; 72 hours, luminescence assay, FIG. 2) was “dose response effect”, the IC50 ([15]; Homo sapiens, MOLM-13, 72 h with inhibitor, Cell Titer-Glo, range stated for MV4-11 and MOLM-13 together, read-out: IC50, inhibition of cellular proliferation) was 0.7 to 2 µM and the “effect on RS4-11 cell growth” value [16] was “not inhibited; also recorded: no effect”. The “STAT5, MAPK and P13K phosphorylation” value [17] was “inhibits STAT5, MAPK and P13K phosphorylation in a dose-dependent manner”, the induction of apoptosis [18] was “induce apoptosis” and the “phosphorylation mediated by protein kinases of families other than tyrosine kinases” value [19] was “did not inhibit”. The “resistance of organ-specific endothelial cells to Taxotere increased by pancreatic tumor-conditioned medium” value [20] was “reversal of this increased resistance”, the “sensitivity of endothelial cells to cytotoxicity mediated by Taxotere” value ([20]; cells at 33° C.) was “increases sensitivity of endothelial cells to cytotoxicity mediated by Taxotere” and the survival rate ([21]; combination with Taxotere, 4-6 weeks) was “higher survival rate”. The “effect of the combination in cancer refractory to chemotherapy” value ([21]; combination with Taxotere, tumor cells resistant to Taxotere (MDR cells)) was “synergistic effect”, the “expression of phosphorylated PDGF-R on endothelial cells” value ([21]; single oral dose, organs harvested two days later) was “inhibited” and the tumor growth [22] was “efficacy against tumor growth”. For the same compound, the “large infiltrating cells with mitotic figures in bone marrow” value ([23]; H&E-stained sections, oral 50-200 mg/kg) was “reduced numbers of large infiltrating cells with mitotic figures”, the “CD45 positive cells in bone marrow” value ([23]; flow cytometry, oral 50-200 mg/kg) was “reduced numbers of CD45 positive cells” and the survival ([23]; oral, 50-200 mg/kg, once daily or 3 times per week) was “prolonged survival”. For the same compound, the “effect on AML193 cell growth” value [24] was “not inhibited; also recorded: no effect” and the FLT3-ITD phosphorylation [25] was “inhibited FLT3-ITD phosphorylation in a dose-dependent manner”.
In the case of “cis-4-(6,7-dimethoxy-quinoxalin-2-ylamino)-cyclohexanol sulfate [Cis-isomer]”, the IC50 [26] is reported as 1400 nM, the IC50 [27] is reported as 2200 nM and the IC50 [1] is reported as 6100 nM. It also gave an IC50 [2] of 4400 nM, an IC50 [3] of 3200 nM and an IC50 [28] of 5700 nM. It also gave an IC50 [29] of 7500 nM, an IC50 [4] of over 10000 nM and an IC50 [5] of 4600 nM. It also gave an IC50 [6] of over 10000 nM, an IC50 [7] of over 10000 nM and an IC50 [8] of 10000 nM. It also gave an IC50 [9] of over 10000 nM, an IC50 [30] of over 10000 nM and an IC50 [11] of over 10000 nM. The IC50 [12] was over 10000 nM, the IC50 [13] was over 10000 nM and the IC50 [31] was over 10000 nM.

From US20070197538A1, “Anti-vascular and anti-proliferation methods, therapies, and combinations employing specific tyrosine kinase inhibitors” (priority 2004, published 2007)
